Earlier results in PubChem BioAssay AID1259410 (Chemical Carcinogenesis Research Information System (CCRIS), 2018).

Tested on: rodent tumor promotion studies, tumor incidence
Experiment: CCRIS tumor promotion studies
Conditions: Route [Promoter]: DERMAL, Species: MOUSE

CCCCCCCCCCCCCC(=O)O[C@@H]1[C@@H](C)[C@@]2(O)[C@@H](C=C(CO)C[C@]3(O)C(=O)C(C)=C[C@@H]23)[C@@H]2C(C)(C)[C@]12OC(C)=O
outcome (Carcinogen: DIBENZO[A,L]PYRENE, 191-30-0, Doses [Carcinogen]: 0.25, 1 NMOL IN 100 µL ACETONE, Doses [Promoter]: 2.16 NMOL IN 100 µL ACETONE 2/WK FOR 27 WK BEGINNING 1 WK POST CARCINOGEN DOSE (STUDY DURATION: 28 WK), Route [Carcinogen]: DERMAL, Strain/Sex: SENCAR/FEMALE): skin: tumor
outcome (Carcinogen: DIBENZO[A,L]PYRENE, 191-30-0, Doses [Carcinogen]: 1.33, 4, 12 NMOL IN 100 ML ACETONE ONCE, Doses [Carcinogen]: 1.33, 4, 12 NMOL IN 100 ML ACETONE ONCE, Doses [Promoter]: 1.62 NMOL IN 100 ML ACETONE 2/WK FOR 28 WK BEGINNING 1 WK POST CARCINOGEN DOSE (STUDY DURATION: 30 WK), Route [Carcinogen]: DERMAL, Strain/Sex: SENCAR/FEMALE): skin: tumor
outcome (Carcinogen: DIBENZO[A,L]PYRENE, 191-30-0, Doses [Carcinogen]: 4, 20, 100 NMOL IN 100 µL ACETONE ONCE, Doses [Carcinogen]: 4, 20, 100 NMOL IN 100 µL ACETONE ONCE, Doses [Promoter]: 3.24 NMOL/100 µL ACETONE 2/WK BEGINNING 2 WK POST CARCINOGEN DOSE AND CONTINUING FOR 24 WK (STUDY DURATION: 27 WK), Route [Carcinogen]: DERMAL, Strain/Sex: SENCAR/FEMALE): skin: tumor
outcome (Carcinogen: DIBENZO[A,L]PYRENE, 191-30-0, Doses [Carcinogen]: 33.3, 100, 300 NMOL IN 100 µL ACETONE ONCE, Doses [Carcinogen]: 33.3, 100, 300 NMOL IN 100 µL ACETONE ONCE, Doses [Promoter]: 3.24 NMOL/100 µL ACETONE ONCE 1 WK POST CARCINOGEN DOSE THEN 2/WK BEGINNING 3 WK LATER AND CONTINUING FOR 11 WK (STUDY D, Route [Carcinogen]: DERMAL, Strain/Sex: SENCAR/FEMALE): skin: tumor
outcome (Carcinogen: DIMETHYLBENZ[A]ANTHRACENE, 57-97-6, Doses [Carcinogen]: 0.2 UMOL IN O.2 ML ACETONE ONCE, Doses [Promoter]: 0, 5 UG IN 0.2 ML ACETONE 3/WK ADMINISTERED 7 D POST CARCINOGEN DOSE AND CONTINUING FOR DURATION OF STUDY (STUDY DURATIO, Route [Carcinogen]: DERMAL, Strain/Sex: SWISS/FEMALE): skin: tumor, squamous cell papilloma, keratoacanthoma
outcome (Carcinogen: N-METHYL-N'-NITRO-N-NITROSOGUANIDINE, 70-25-7, Doses [Carcinogen]: 4 UMOL IN 200 µL ACETONE ONCE, Doses [Promoter]: 0, 10 NMOL IN 200 µL ACETONE 2/WK FOR 52 WK BEGINNING 2 WK POST CARCINOGEN DOSE (STUDY DURATION: 52 WK), Route [Carcinogen]: DERMAL, Strain/Sex: C3H/CB/S/GEN/FEMALE): skin: tumor
outcome (Carcinogen: N-METHYL-N'-NITRO-N-NITROSOGUANIDINE; 70-25-7; Doses [Carcinogen]: 4 UMOL IN 200 µL ACETONE ONCE; Doses [Promoter]: 0; 10 NMOL IN 200 µL ACETONE 2/WK FOR 52 WK BEGINNING 2 WK POST CARCINOGEN DOSE STUDY DURATION: 52 WK), Route [Carcinogen]: DERMAL, Strain/Sex: C3H/FEMALE): skin: tumor
outcome (Carcinogen: PHENOXYOXIRANE, 79526-11-7, Doses [Carcinogen]: 5 UMOL IN 0.2 ML 15% DMSO IN ACETONE ONCE, Doses [Promoter]: 0, 15 NMOL IN 0.1 ML ACETONE ONCE 18-24 HR PRIOR TO CARCINOGEN DOSE THEN BEGINNING 1 WK LATER 2/WK FOR DURATION OF STUDY, Route [Carcinogen]: DERMAL, Strain/Sex: ICR/FEMALE): skin: papilloma
outcome (Carcinogen: PHENYL VINYL ETHER, 766-94-9, Doses [Carcinogen]: 5 UMOL IN 0.2 ML 15% DMSO IN ACETONE ONCE, Doses [Promoter]: 0, 15 NMOL IN 0.1 ML ACETONE ONCE 18-24 HR PRIOR TO CARCINOGEN DOSE THEN BEGINNING 1 WK LATER 2/WK FOR DURATION OF STUDY, Route [Carcinogen]: DERMAL, Strain/Sex: ICR/FEMALE): skin: papilloma
outcome (Carcinogen: SYN-1,2-DIHYDROXY-3,4-EPOXY-1,2,3,4-TETRAHYDRO-5,6-DIMETHYLCHRYSENE, 139562-15-5, Doses [Carcinogen]: 100 NMOL IN 0.1 ML ACETONE ONCE, Doses [Promoter]: 0, 2.5 UG IN 0.1 ML ACETONE 3/WK FOR 20 WK BEGINNING 10 D POST CARCINOGEN DOSE (STUDY DURATION: 20 WK), Route [Carcinogen]: DERMAL, Strain/Sex: CD-1/FEMALE): skin: tumor
outcome (Carcinogen: THIRAM, 137-26-8, Doses [Carcinogen]: 100 MG/KG BW 3/WK FOR 3 WK, Doses [Promoter]: 0, 5 UG IN 100 µL ACETONE 3/WK FOR 51 WK BEGINNING 1 WK POST CARCINOGEN TREATMENT (STUDY DURATION: 54 WK), Route [Carcinogen]: DERMAL, Strain/Sex: SWISS/FEMALE): skin: tumor
outcome (Carcinogen: THIRAM, 137-26-8, Doses [Carcinogen]: 100 MG/KG BW IN 100 µL DMSO ONCE, Doses [Promoter]: 5 UG IN 100 µL ACETONE 3/WK BEGINNING 1 WK POST CARCINOGEN DOSE (STUDY DURATION: 52 WK), Route [Carcinogen]: DERMAL, Strain/Sex: SWISS/MALE): skin: tumor
outcome (Carcinogen: THIRAM, 137-26-8, Doses [Carcinogen]: 100 MG/KG BW IN 100 µL DMSO ONCE, Doses [Promoter]: 5 UG IN 100 µL ACETONE 3/WK FOR 3 WK BEGINNING 1 WK POST CARCINOGEN DOSE (STUDY DURATION: 52 WK), Route [Carcinogen]: DERMAL, Strain/Sex: SWISS/FEMALE): skin: tumor
outcome (Carcinogen: THIRAM, 137-26-8, Doses [Carcinogen]: 100 MG/KG BW IN 100 µL DMSO ONCE, Doses [Promoter]: 5 UG IN 100 µL ACETONE 3/WK FOR 51 WK BEGINNING 1 WK POST CARCINOGEN DOSE (STUDY DURATION: 52 WK), Route [Carcinogen]: DERMAL, Strain/Sex: SWISS/MALE): skin: tumor
outcome (Carcinogen: TRANS-4,5-DIHYDROBENZO[J]FLUORANTHENE-4,5-DIOL, 106542-80-7, Doses [Carcinogen]: 0, 1, 3 UMOL (TOTAL DOSE) IN ACETONE SOLUTION 1/2 D FOR 10 DOSES, Doses [Carcinogen]: 0, 1, 3 UMOL (TOTAL DOSE) IN ACETONE SOLUTION 1/2 D FOR 10 DOSES, Doses [Promoter]: 2.5 UG IN ACETONE 3/WK BEGINNING 10 D POST LAST CARCINOGEN DOSE AND CONTINUING FOR 20 WK (STUDY DURATION: 23 WK), Route [Carcinogen]: DERMAL, Strain/Sex: CD-1/FEMALE): skin: tumors
outcome (Carcinogen: TRANS-9,10-DIHYDRO-5,9,10-TRIHYDROXYBENZO[B]FLUORANTHENE, 114451-04-6, Doses [Carcinogen]: 0, 0.04, 0.12, 0.4 UMOL (TOTAL DOSE) APPLIED IN SUBDOSES 1/2 D FOR 5 WK, Doses [Carcinogen]: 0, 0.04, 0.12, 0.4 UMOL (TOTAL DOSE) APPLIED IN SUBDOSES 1/2 D FOR 5 WK, Doses [Promoter]: 2.5 UG IN 100 µL ACETONE 3/WK FOR 20 WK BEGINNING 10 D POST LAST CARCINOGEN DOSE (STUDY DURATION: 26 WK), Route [Carcinogen]: DERMAL, Strain/Sex: CD-1/FEMALE): skin: tumor
outcome (Carcinogen: TRANS-9,10-DIHYDRO-6,9,10-TRIHYDROXYBENZO[B]FLUORANTHENE, 114451-05-7, Doses [Carcinogen]: 0, 0.4 UMOL (TOTAL DOSE) APPLIED IN SUBDOSES 1/2 D FOR 5 WK, Doses [Promoter]: 2.5 UG IN 100 µL ACETONE 3/WK FOR 20 WK BEGINNING 10 D POST LAST CARCINOGEN DOSE (STUDY DURATION: 26 WK), Route [Carcinogen]: DERMAL, Strain/Sex: CD-1/FEMALE): skin: tumor
outcome (Carcinogen: TRANS-9,10-DIHYDROBENZO[J]FLUORANTHENE-9,10-DIOL, 76479-14-6, Doses [Carcinogen]: 0, 3 UMOL (TOTAL DOSE) IN ACETONE SOLUTION 1/2 D FOR 10 DOSES, Doses [Promoter]: 2.5 UG IN ACETONE 3/WK BEGINNING 10 D POST LAST CARCINOGEN DOSE AND CONTINUING FOR 20 WK (STUDY DURATION: 23 WK), Route [Carcinogen]: DERMAL, Strain/Sex: CD-1/FEMALE): skin: tumors
outcome (Carcinogen: VINYL CARBAMATE EPOXIDE, 82617-23-0, Doses [Carcinogen]: 0, 5.8, 11.5 UMOL IN 0.2 ML 15% DMSO 1/WK FOR 5 WK, Doses [Carcinogen]: 0, 5.8, 11.5 UMOL IN 0.2 ML 15% DMSO 1/WK FOR 5 WK, Doses [Promoter]: 0, 2.5 UG IN 0.1 ML ACETONE 18-24 HR PRIOR TO EACH CARCINOGEN DOSE THEN 2/WK FOR DURATION OF STUDY (STUDY DURATION: 22 W, Route [Carcinogen]: DERMAL, Strain/Sex: CD-1/FEMALE): skin: papilloma
outcome (Carcinogen: VINYL CARBAMATE EPOXIDE, 82617-23-0, Doses [Carcinogen]: 1.5, 11.5 UMOL IN 0.2 ML 15% DMSO ONCE, Doses [Promoter]: 0, 2.5 UG IN 0.1 ML ACETONE 18-24 HR PRIOR TO CARCINOGEN DOSE THEN 2/WK FOR DURATION OF STUDY (STUDY DURATION: 22 WK), Route [Carcinogen]: DERMAL, Strain/Sex: CD-1/FEMALE): skin: papilloma
outcome (Carcinogen: VINYL CARBAMATE, 15805-73-9, Doses [Carcinogen]: 0, 5.8, 11.5 UMOL IN 0.2 ML 15% DMSO 1/WK FOR 5 WK, Doses [Carcinogen]: 0, 5.8, 11.5 UMOL IN 0.2 ML 15% DMSO 1/WK FOR 5 WK, Doses [Promoter]: 0, 2.5 UG IN 0.1 ML ACETONE 18-24 HR PRIOR TO EACH CARCINOGEN DOSE THEN 2/WK FOR DURATION OF STUDY (STUDY DURATION: 22 W, Route [Carcinogen]: DERMAL, Strain/Sex: CD-1/FEMALE): skin: papilloma
outcome (Carcinogen: VINYL CARBAMATE, 15805-73-9, Doses [Carcinogen]: 1.15, 11.5 UMOL IN 0.2 ML 15% DMSO ONCE, Doses [Promoter]: 0, 2.5 UG IN 0.1 ML ACETONE 18-24 HR PRIOR TO CARCINOGEN DOSE THEN 2/WK FOR DURATION OF STUDY (STUDY DURATION: 22 WK), Route [Carcinogen]: DERMAL, Strain/Sex: CD-1/FEMALE): skin: papilloma
outcome (Carcinogen: X-RAY, Doses [Carcinogen]: 4.2 GY TO MALE MICE OF THE PARENT GENERATION, Doses [Promoter]: 0, 6.15 UG IN 0.1 ML ACETONE 2/WK FOR 24 WK ADMINISTERED TO F1 OFFSPRING OF IRRADIATED MALES BEGINNING AT 4 MO OF AGE (S, Route [Carcinogen]: WHOLE-BODY IRRADIATION, Strain/Sex: SHR/FEMALE): skin: tumor
outcome (Carcinogen: X-RAY, Doses [Carcinogen]: 4.2 GY TO MALE MICE OF THE PARENT GENERATION, Doses [Promoter]: 0, 6.15 UG IN 0.1 ML ACETONE 2/WK FOR 24 WK ADMINISTERED TO F1 OFFSPRING OF IRRADIATED MALES BEGINNING AT 4 MO OF AGE (S, Route [Carcinogen]: WHOLE-BODY IRRADIATION, Strain/Sex: SHR/MALE): skin: tumor
outcome (Carcinogen: X-RAY, Doses [Carcinogen]: 4.2 GY TO MALE MICE OF THE PARENT GENERATION, Doses [Promoter]: 0, 6.15 UG IN 0.1 ML ACETONE 2/WK FOR 24 WK ADMINISTERED TO F2 GENERATION OF IRRADIATED MALES BEGINNING AT 4 MO OF AGE (, Route [Carcinogen]: WHOLE-BODY IRRADIATION, Strain/Sex: SHR/FEMALE): skin: tumor
outcome (Carcinogen: X-RAY, Doses [Carcinogen]: 4.2 GY TO MALE MICE OF THE PARENT GENERATION, Doses [Promoter]: 0, 6.15 UG IN 0.1 ML ACETONE 2/WK FOR 24 WK ADMINISTERED TO F2 GENERATION OF IRRADIATED MALES BEGINNING AT 4 MO OF AGE (, Route [Carcinogen]: WHOLE-BODY IRRADIATION, Strain/Sex: SHR/MALE): skin: tumor
